The text below walks through data of PubChem BioAssay (NCI).

Common to all, as to test: growth of human tumour cells (NCI), 48 h
Assay [1] concerns OVCAR-3 ovarian.
The subject of assay [2] is KM12 colon.
For assay [3], the system named is HL-60(TB) leukemia.
Assay [4] concerns SK-MEL-28 melanoma.
Assay [5] relates to TK-10 renal.
Assay [6] has as its system RXF 393 renal.
For assay [7], the system named is SF-539 CNS.
Assay [8] relates to K-562 leukemia.
The subject of assay [9] is SR leukemia.
In assay [10] the test system is HCC-2998 colon.

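Assay format: 96-well plates, 48-hour exposure. GI50 = concentration required for 50% inhibition of growth. TGI marks complete inhibition of growth.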

For the molecule `Nc1ccc(S(=O)(=O)NCc2nccs2)cc1`, the TGI in [1] was greater than 100 µM; in assay [2], 45 µM; in [3], 44 µM; in assay [4], 51.2 µM; in [5], 56.5 µM; in assay [6] it was greater than 100 µM. The TGI in assay [7] is 36.2 µM; in assay [8], 82.8 µM; in assay [9], greater than 100 µM.

Consider `CN=C1SC(=Nc2ccc(N(C)C)cc2)N1C`, for which the TGI in assay [1], in assay [2], in assay [3], in [4], in assay [10] and in [5] was greater than 100 µM throughout. For the same molecule, the TGI in assay [7], in assay [8] and in [9] was greater than 100 µM each time.

Regarding `CC1(C)C2CCC3(C2)CS(=O)(=O)N2OC231` (configuration not stated), the TGI in assay [1] is 33.2 µM; in assay [2], 41.9 µM; in [3], 43.3 µM; in assay [4], 44.7 µM; in assay [10] it was greater than 100 µM; in assay [5] it was 32.9 µM. Moreover, the TGI is 33.6 µM in assay [7], 54.6 µM in assay [8] and greater than 100 µM in assay [9].

Regarding `CCN(CC)CCCC(C)Nc1c2ccc(C)cc2nc2ccc(OC)cc12` (configuration not stated), the GI50 is 1.75 µM in assay [1]; 1.39 µM in assay [2]; 2.71 µM in [3]; 1.87 µM in [4]; 0.569 µM in assay [5]; 1.44 µM in assay [6]. For the same molecule, the figures for the GI50 in assay [7], in assay [8] and in assay [9] were 1.71 µM, 2.92 µM and 2.04 µM, respectively. The TGI in [1] turned out to be 4.14 µM; in assay [2], 9.19 µM; in assay [3], 9.44 µM; in [4], 3.35 µM; in assay [5], 12.5 µM; in [6], 2.88 µM. In addition, the TGI came out at 3.98 µM in [7], 10.6 µM in assay [8] and 7.18 µM in assay [9].

On to `O=[N+]([O-])c1nccn1COCCBr`, for which the TGI in assay [1], in [2], in assay [3], in assay [4], in assay [5] and in assay [7] was greater than 100 µM in each case. For the same molecule, the TGI in assay [8] and in [9] was greater than 100 µM each time.

For the molecule `COc1ccc(Cl)cc1Nc1nc(C(F)(F)F)ccc1C(=O)N/N=C/c1cc(OC)c(OC)c(OC)c1`, the GI50 in [1] was 0.449 µM; in assay [2], 3.55 µM; in assay [3], 2.21 µM; in assay [4], 1.83 µM; in assay [10], 2.24 µM; in [5], 1.76 µM. In addition, the figures for the GI50 in [7], in assay [8] and in assay [9] were 1.51 µM, 2.42 µM and 1.19 µM, respectively. The TGI in assay [1] is greater than 100 µM; in [2], 20.8 µM; in [3], 5.77 µM; in assay [4] it was 9.26 µM; in assay [10], 19.7 µM; in assay [5] it was 7.28 µM. The TGI in assay [7] is 3.2 µM; in [8] it was greater than 100 µM; in assay [9], 4.19 µM.

Turning to `OCC1OC(n2cnc3c(/C=C(/O)c4ccccc4)ncnc32)C(O)C1O` (configuration not stated), the TGI in [1] was greater than 100 µM; in assay [2], greater than 100 µM; in [3], 24 µM; in assay [4] it was greater than 100 µM; in assay [5], 13.5 µM; in [6], greater than 100 µM. Also, the TGI in assay [7], in [8] and in assay [9] was greater than 100 µM each time.

`Cn1c(=O)c2c(ncn2CN2CCN(Cn3cnc4c3c(=O)n(C)c(=O)n4C)CC2)n(C)c1=O`: the TGI was greater than 100 µM in [1]; greater than 100 µM in assay [2]; 54 µM in [3]; greater than 100 µM in assay [4]; greater than 100 µM in assay [5]; 44.1 µM in [6]. Besides, the TGI in assay [7], in assay [8] and in [9] was greater than 100 µM each time.

Consider `CCN(CCNc1ccc(C)c2sc3ccccc3c(=O)c12)CC(C)(C)O`, for which the GI50 is 13.1 µM in [1]; 4.23 µM in assay [2]; 8.9 µM in assay [3]; 6.16 µM in assay [4]; 8.81 µM in assay [10]; 14.3 µM in assay [5]. Moreover, the GI50 is 12.1 µM in assay [7], 2.94 µM in assay [8] and 4.76 µM in [9]. Besides, the TGI in assay [1] was 27.4 µM; in assay [2] it was 14.1 µM; in assay [3] it was greater than 35.7 µM; in assay [4], 17.8 µM; in assay [10], 27.3 µM; in assay [5], 33.7 µM. Further, the TGI was 25.2 µM in assay [7], greater than 22.2 µM in assay [8] and greater than 100 µM in assay [9].

`CCN1CSC(=S)N(CC)C1`: the TGI in [1] is greater than 100 µM; in [2], greater than 100 µM; in assay [3], 47.4 µM; in assay [4], greater than 100 µM; in assay [10] it was greater than 100 µM; in assay [5], greater than 100 µM. The TGI is greater than 100 µM in [6], 76 µM in assay [7] and greater than 100 µM in assay [8].

For `CC(C)Oc1cc(O)c2c(c1)OCC=C2CCC(=O)O`, the TGI in [1] is greater than 100 µM; in assay [2] it was greater than 100 µM; in assay [3], 42 µM; in assay [4], greater than 100 µM; in assay [5], 76.8 µM; in assay [6] it was greater than 100 µM. Moreover, the TGI in assay [8] and in [9] was greater than 100 µM throughout.

For the molecule `CC(C)(C)NC(=O)[C@H]1C[C@H]2CCCC[C@H]2CN1C[C@@H](O)[C@H](Cc1ccccc1)NC(=O)[C@H](CC(N)=O)NC(=O)c1ccc2ccccc2n1`, the GI50 in assay [1] was 13.5 µM; in assay [2], 14 µM; in assay [3] it was 4.22 µM; in assay [4], 16.9 µM; in assay [10] it was 13.4 µM; in assay [5], 15.4 µM. Besides, the GI50 in assay [6] was 12.5 µM; in assay [7], 2.93 µM; in [8] it was 8.51 µM. The TGI in assay [1] worked out at 33.5 µM; in [2], 34.8 µM; in assay [3] it was 26.3 µM; in [4], 33.1 µM; in assay [10] it was 26.8 µM; in assay [5], 36.6 µM. The TGI in assay [6] turned out to be 32.1 µM; in [7], 23.9 µM; in assay [8] it was 24.4 µM.
